Experimental data reported in ChEMBL document CHEMBL1201862, “PubChem BioAssay data set” (2004).
Active and inactive are the calls of the source.

What was measured:
[1] = cells; assay type: functional, cell-based
[2] = biological target: T1, Trace amine-associated receptor 1 (Homo sapiens, UniProt Q96RJ0); assay: Counterscreen for agonists of the human trace amine associated receptor 1 (hTAAR1): Fluorescence-based cell-based high throughput dose response assay to identify hTAAR1 agonist that also desensitize TAAR1 receptor response.; assay type: functional
T1 sequence (Q96RJ0 whole entry): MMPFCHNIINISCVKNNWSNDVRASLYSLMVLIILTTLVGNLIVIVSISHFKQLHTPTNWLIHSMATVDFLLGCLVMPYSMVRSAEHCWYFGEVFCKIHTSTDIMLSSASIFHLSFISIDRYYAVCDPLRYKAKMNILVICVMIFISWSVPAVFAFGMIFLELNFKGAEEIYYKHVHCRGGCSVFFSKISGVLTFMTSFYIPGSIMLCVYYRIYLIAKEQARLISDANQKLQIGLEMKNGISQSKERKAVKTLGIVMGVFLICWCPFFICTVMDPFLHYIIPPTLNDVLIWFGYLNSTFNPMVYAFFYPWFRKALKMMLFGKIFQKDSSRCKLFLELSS

[3] = biological target: T2, Heat shock factor protein 1 (Mus musculus, UniProt P38532); assay: enhancement of HSF1-driven luciferase signal – cell-based, NIH3T3, luminescence, dose retest, confirmation (AID 435004); assay type: functional;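 note: stress induced by proteasome inhibitor MG132 added 30 min after compound; luciferase reporter driven by HSF1 response element in NIH3T3 cells; actives raise luminescence as potentiators of the MG132 stress response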
T2 sequence (P38532 whole entry): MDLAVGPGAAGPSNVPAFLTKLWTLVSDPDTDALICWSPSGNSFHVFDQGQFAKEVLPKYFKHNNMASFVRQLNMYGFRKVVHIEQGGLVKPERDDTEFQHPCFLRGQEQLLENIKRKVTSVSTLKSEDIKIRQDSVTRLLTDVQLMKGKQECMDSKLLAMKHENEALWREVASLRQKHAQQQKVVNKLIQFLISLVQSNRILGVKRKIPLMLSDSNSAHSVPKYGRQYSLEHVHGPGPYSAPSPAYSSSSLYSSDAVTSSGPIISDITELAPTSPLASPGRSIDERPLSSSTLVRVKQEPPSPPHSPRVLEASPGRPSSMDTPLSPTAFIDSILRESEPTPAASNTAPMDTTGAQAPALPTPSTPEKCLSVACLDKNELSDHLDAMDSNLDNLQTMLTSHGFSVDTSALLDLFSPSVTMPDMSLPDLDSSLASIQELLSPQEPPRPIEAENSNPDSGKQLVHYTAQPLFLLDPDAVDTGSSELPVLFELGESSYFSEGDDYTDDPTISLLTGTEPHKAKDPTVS

[4] = cells; assay type: functional, cell-based; remark: listed apart in the source
[5] = biological target: T1, Trace amine-associated receptor 1; assay: Fluorescence-based cell-based high throughput dose response assay to identify agonists of the human trace amine associated receptor 1 (TAAR1).; assay type: functional
[6] = viability loss in CEM21 cells – cell-based, CellTiter-Glo luminescence, cherry-picked, cytotoxicity control for viral fusion inhibitor project, dose response (AID 652042); assay type: functional;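 note: potency for signal decrease meaning cytotoxicity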
[7] = HIV-1 AD8 envelope cell-cell fusion blockers – cherry-pick, dose response (AID 652062); assay type: functional, cell-based;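 note: luciferase signal from cell-cell fusion driven by HIV-1 clade B AD8 Env; potency is for inhibitors of fusion seen as a drop in luminescence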
[8] = off-target signal loss in HeLa-CEM21 co-culture – HeLa F-luc CTL cells, cherry-picked, counter-screen for HIV-1 Env fusion inhibitor project, dose response (AID 652040); assay type: functional, cell-based;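 note: potency for signal decrease marking cytotoxic or nonspecific inhibition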
[9] = biological target: COUP transcription factor 2 (Homo sapiens, UniProt P24468); assay: Luminescence-based cell-based high throughput dose response assay to identify inhibitors of COUP-TFII (NR2F2).; assay type: functional;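 note: HEK293 cells transiently cotransfected with COUP-TFII expression vector and reporter; luciferase reporter luminescence driven by COUP-TFII from the pX2-168 reporter plasmid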
[10] = biological target: Galanin receptor type 3 (Homo sapiens, UniProt O60755); assay: Fluorescence-based cell-based primary high throughput dose response assay to identify antagonists of the Galanin Receptor 3 (GalR3).; assay type: functional
[11] = cells; assay type: functional, cell-based; conditions: HEK-CNG
[12] = PAX5 cellular inhibition readout – cell-based, plate reader, dry powder samples, selectivity assay for PAX8 inhibitor project, dose response (AID 743047); assay type: functional;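 note: HEK293 cells carrying a Pax5 driven CD19 promoter luciferase reporter; potency of inhibitors that lower reporter luminescence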
[13] = COV362 cell viability loss – plate reader, dry powder, SA12, cytotoxicity control for PAX8 inhibitor project, dose response (AID 743144); assay type: functional, cell-based
[14] = COV434 cell viability loss – plate reader, dry powder, SA7, cytotoxicity control for PAX8 inhibitor project, dose response (AID 743145); assay type: functional, cell-based
[15] = PAX8-dependent cell viability loss – plate reader, dry powder, dose response (AID 743049); assay type: functional, cell-based
[16] = inhibitors acting on PAX2 in cells – cell-based, plate reader, dry powder samples, selectivity assay for PAX8 inhibitor project, dose response (AID 743048); assay type: functional;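 note: HEK293 cells carrying a WT1 promoter luciferase reporter driven by expressed Pax2; potency is for inhibition of Pax2 driven reporter signal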
[17] = biological target: Paired box protein Pax-8 (Homo sapiens, UniProt Q06710); assay: PAX8 transcriptional activity inhibition in RMG-I – RMG-I cells, luciferase, cherry-pick, dose response (AID 687027); assay type: functional, cell-based;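 note: luciferase reporter driven by Pax8 target thyroperoxidase promoter measured by SteadyGlo luminescence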
[18] = T. cruzi growth inhibition in host cells, dose response, cell-based, plate reader, dry powder, set 2 (AID 652275); assay type: functional
[19] = biological target: Cytochrome P450 2C9 (Homo sapiens, UniProt P11712)
[20] = blockers of HIV-1 envelope-mediated cell-cell fusion – cherry-pick, dose response (AID 652057); assay type: functional, cell-based
[21] = biological target: FAD-linked sulfhydryl oxidase ALR (Homo sapiens, UniProt P55789); assay: ALR-catalysed DTT oxidation blockers – biochemical, H2O2 detection, luminescence, cherry-pick, dose response (AID 493248)
[22] = biological target: Albumin (Bos taurus, UniProt P02769); assay: Counterscreen for inhibitors of T-cell receptor (TCR)-CD3 interaction: Fluorescence-based biochemical high throughput dose response assay to identify inhibitors of T-cell receptor (TCR)-CD3 interaction using a TAMRA-labeled BSA probe.; assay type: functional
Sequence of Albumin (P02769 whole entry): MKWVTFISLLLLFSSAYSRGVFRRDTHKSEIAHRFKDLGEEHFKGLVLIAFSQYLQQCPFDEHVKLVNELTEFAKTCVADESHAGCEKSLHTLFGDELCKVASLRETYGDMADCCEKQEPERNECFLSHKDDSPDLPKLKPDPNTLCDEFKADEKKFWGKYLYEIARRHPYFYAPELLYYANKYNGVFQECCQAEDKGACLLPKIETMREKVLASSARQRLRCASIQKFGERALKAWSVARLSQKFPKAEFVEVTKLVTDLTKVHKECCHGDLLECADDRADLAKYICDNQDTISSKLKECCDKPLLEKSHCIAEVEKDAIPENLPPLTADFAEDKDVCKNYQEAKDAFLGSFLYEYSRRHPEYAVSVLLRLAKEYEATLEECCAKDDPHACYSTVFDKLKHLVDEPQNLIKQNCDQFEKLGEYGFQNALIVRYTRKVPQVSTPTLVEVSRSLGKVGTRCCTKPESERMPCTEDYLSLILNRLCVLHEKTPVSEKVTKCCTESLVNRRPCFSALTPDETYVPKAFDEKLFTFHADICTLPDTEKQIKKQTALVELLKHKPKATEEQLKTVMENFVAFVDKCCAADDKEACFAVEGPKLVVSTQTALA

Sequence of FAD-linked sulfhydryl oxidase ALR (P55789 whole entry): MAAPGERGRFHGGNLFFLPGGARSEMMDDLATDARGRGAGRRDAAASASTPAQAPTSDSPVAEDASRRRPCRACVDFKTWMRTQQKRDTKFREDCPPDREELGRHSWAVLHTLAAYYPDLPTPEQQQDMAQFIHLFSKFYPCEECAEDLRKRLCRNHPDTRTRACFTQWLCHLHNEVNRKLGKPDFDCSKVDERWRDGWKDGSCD
Sequence of Cytochrome P450 2C9 (P11712 whole entry, the tested form may be a part): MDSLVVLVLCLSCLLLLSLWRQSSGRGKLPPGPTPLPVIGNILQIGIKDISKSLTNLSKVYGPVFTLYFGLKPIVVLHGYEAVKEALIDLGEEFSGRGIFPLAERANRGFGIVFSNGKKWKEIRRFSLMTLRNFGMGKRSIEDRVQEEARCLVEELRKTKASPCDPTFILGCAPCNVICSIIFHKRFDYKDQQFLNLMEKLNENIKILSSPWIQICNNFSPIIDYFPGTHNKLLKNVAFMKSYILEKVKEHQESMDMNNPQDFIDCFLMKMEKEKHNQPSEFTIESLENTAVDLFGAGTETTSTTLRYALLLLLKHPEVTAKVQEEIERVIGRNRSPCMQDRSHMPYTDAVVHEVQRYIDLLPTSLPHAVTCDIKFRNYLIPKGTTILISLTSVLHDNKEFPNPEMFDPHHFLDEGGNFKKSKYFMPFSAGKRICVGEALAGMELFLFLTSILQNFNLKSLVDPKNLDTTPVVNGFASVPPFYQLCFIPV
Sequence of Paired box protein Pax-8 (Q06710 whole entry): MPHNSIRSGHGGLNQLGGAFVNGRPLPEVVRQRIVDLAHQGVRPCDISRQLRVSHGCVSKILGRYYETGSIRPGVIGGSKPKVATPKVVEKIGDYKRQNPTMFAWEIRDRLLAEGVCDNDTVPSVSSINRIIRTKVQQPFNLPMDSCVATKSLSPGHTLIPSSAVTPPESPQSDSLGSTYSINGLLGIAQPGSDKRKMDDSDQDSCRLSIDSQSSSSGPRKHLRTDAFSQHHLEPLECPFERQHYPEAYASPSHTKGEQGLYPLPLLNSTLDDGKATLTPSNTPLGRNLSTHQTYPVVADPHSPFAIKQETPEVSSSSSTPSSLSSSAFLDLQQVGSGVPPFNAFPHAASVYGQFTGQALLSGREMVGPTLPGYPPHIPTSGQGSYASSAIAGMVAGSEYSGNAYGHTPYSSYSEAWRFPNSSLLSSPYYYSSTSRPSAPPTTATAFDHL
Sequence of Galanin receptor type 3 (O60755 whole entry): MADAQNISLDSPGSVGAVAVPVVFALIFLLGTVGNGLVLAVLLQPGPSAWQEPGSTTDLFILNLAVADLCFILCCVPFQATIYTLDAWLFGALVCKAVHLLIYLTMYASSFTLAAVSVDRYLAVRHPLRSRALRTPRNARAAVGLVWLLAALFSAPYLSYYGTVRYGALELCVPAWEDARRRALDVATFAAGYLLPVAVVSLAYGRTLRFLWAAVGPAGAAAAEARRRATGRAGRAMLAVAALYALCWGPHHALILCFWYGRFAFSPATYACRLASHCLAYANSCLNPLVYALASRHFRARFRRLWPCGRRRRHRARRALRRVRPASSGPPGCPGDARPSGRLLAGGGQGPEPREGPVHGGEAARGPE
Sequence of COUP transcription factor 2 (P24468 whole entry): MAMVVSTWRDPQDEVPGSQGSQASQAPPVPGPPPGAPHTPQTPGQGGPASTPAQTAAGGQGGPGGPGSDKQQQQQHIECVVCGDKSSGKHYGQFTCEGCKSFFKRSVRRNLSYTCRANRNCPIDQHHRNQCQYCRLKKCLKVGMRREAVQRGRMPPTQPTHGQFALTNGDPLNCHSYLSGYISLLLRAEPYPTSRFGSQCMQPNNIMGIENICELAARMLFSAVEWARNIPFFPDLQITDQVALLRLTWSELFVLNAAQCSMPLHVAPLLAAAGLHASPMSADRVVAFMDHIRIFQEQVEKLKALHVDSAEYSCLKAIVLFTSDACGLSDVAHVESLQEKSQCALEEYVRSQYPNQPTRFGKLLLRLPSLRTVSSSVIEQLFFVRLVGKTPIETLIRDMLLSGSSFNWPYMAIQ

SMILES: Cc1c(CNCCc2ccccc2)c(C(=O)O)c(C)n1-c1ccccc1
- EC50 [1]: > 29.9 µM (inactive)
- IC50 [2]: 8.17 µM (active)
- EC50 [3]: > 260 µM (inactive)
- IC50 [4]: > 29.9 µM (inactive)
- EC50 [5]: 1.78 µM (active)

SMILES: N#CCSc1nnc(-c2sc3ccccc3c2Cl)o1
- AC50 [6]: 46.4 µM (active)
- AC50 [7]: 6.32 µM (active)
- AC50 [8]: > 70 µM (inactive)
- IC50 [9]: 12 µM (inactive)

SMILES: CC(=O)OCC[N+](C)(C)C.[O-][Cl+3]([O-])([O-])[O-]
- IC50 [10]: 0.618 µM (active)
- EC50 [11]: > 29.9 µM (inactive)

SMILES: C[C@H](CO)N1C[C@H](C)[C@@H](CN(C)Cc2ccc(-c3ccccc3)cc2)Oc2ccc(NS(=O)(=O)c3ccccc3)cc2CC1=O
- AC50 [12]: 14.8 µM (active)
- AC50 [13]: 26.3 µM (active)
- AC50 [14]: 37.2 µM (active)
- AC50 [15]: 30.4 µM (active)
- AC50 [16]: 8 µM (active)
- AC50 [17]: 17.4 µM (active)

SMILES: CN(C)C(=O)c1cccc(-c2ccc([C@H]3[C@@H](CO)N4CCCCN(C(=O)C5CCCC5)C[C@@H]34)cc2)c1
- AC50 [18]: 0.691 µM (active)

SMILES: CC(C)N1C[C@@H](CN(C)Cc2ccc(Cl)cc2)Oc2c(NC(=O)c3ccccc3)cccc2C1=O
- AC50 [18]: 1.49 µM (active)

SMILES: Cc1cccc(/C=N\Nc2cnnc(O)c2Cl)c1
- EC50 [1]: > 29.9 µM (inactive)
- AC50 [19]: 28.2 µM (inconclusive)
- AC50 [8]: 0.76 µM (active)
- IC50 [2]: 7.33 µM (active)
- AC50 [20]: 1.06 µM (active)
- IC50 [4]: > 29.9 µM (inactive)
- EC50 [5]: 1.28 µM (active)

SMILES: COC(=O)c1cc(O)c(O)c(O)c1 [GALLIC ACID METHYL ESTER]
- AC50 [21]: 4.94 µM (active)
- IC50 [22]: > 94.3 µM (inactive)
